Results as given in patent publication US10160755B2 (Plexxikon Inc., priority 2015, dated 2018).

target: T1, FLT3-ITD (Homo sapiens, UniProt P36888); experiment: FLT3-ITD biochemical kinase assay (AlphaScreen)
T1 construct: FLT3-ITD; Invitrogen #PV6190
T1 sequence (P36888 1-993): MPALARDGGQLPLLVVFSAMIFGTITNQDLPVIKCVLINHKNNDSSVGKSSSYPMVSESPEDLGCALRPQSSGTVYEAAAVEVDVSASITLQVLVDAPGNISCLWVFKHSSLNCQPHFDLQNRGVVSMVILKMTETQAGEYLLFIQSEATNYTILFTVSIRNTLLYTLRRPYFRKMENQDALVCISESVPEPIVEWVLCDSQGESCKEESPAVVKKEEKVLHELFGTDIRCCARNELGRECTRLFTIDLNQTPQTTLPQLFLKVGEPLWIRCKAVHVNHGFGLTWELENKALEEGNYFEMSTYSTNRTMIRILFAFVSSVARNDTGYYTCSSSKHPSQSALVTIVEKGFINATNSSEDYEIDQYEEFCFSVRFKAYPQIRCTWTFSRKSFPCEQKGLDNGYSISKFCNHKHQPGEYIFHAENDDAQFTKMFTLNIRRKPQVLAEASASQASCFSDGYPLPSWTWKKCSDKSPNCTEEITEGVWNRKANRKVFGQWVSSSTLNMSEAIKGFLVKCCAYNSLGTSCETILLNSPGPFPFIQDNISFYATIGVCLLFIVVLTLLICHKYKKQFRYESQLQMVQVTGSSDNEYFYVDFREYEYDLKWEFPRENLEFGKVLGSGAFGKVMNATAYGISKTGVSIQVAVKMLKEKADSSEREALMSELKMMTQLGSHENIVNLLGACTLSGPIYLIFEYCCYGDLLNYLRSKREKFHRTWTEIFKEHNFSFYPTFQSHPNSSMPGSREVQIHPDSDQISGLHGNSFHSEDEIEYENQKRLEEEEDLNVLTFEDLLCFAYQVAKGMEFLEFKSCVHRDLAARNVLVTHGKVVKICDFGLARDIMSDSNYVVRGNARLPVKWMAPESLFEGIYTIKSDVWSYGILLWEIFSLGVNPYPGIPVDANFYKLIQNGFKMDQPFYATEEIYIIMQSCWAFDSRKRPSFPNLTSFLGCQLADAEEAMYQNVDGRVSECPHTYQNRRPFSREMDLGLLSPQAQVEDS
In short: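 AlphaScreen read-out of tyrosine phosphorylation of a 30 nM biotinylated poly(Glu4-Tyr) substrate, captured on streptavidin donor and PY20 acceptor beads at room temperature. ATP for IC50 work was 100 μM with FLT3-ITD and 10 μM with FLT3-D835Y; reduced 580 nm proximity signal reflects kinase inhibition.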

| IC50 [µM] | Compound |
| --- | --- |
| 0.0001 to 1 | CC(C)(C)n1cnc2ccc(-c3c[nH]c4ncc(-c5cnn(CC(F)(F)F)c5)nc34)cc21 [P-256, 7-(3-tert-butylbenzimidazol-5-yl)-2-[1-(2,2,2-trifluoroethyl)pyrazol-4-yl]-5H-pyrrolo[2,3-b]pyrazine] |
| 0.0001 to 1 | c1cc(N2CCOCC2)ccc1-c1cnc2[nH]cc(-c3ccc4ncn(C5CCCNC5)c4c3)c2n1 (stereo not drawn) [P-101, 4-[4-[7-[3-(3-piperidyl)benzimidazol-5-yl]-5H-pyrrolo[2,3-b]pyrazin-2-yl]phenyl]morpholine] |
| 0.0001 to 1 | COc1cc(-c2cnc3[nH]cc(-c4ccc5ncn(C(C)(C)C)c5c4)c3c2)ccn1 [P-106, 1-tert-butyl-6-[5-(2-methoxy-4-pyridyl)-1H-pyrrolo[2,3-b]pyridin-3-yl]benzimidazole] |
| 0.0001 to 1 | COc1cc(-c2cnc3[nH]cc(-c4ccc5ncn(C(C)C)c5c4)c3n2)ccn1 [P-113, 7-(3-isopropylbenzimidazol-5-yl)-2-(2-methoxy-4-pyridyl)-5H-pyrrolo[2,3-b]pyrazine] |
| 0.0001 to 1 | N#Cc1cccc(C(=O)Nc2cnc3[nH]cc(-c4ccc5ncn(C6CCCNC6)c5c4)c3c2)c1 (stereo not drawn) [P-236, 3-cyano-N-[3-[3-(3-piperidyl)benzimidazol-5-yl]-1H-pyrrolo[2,3-b]pyridin-5-yl]benzamide] |
| 0.0001 to 1 | CC(C)(C)n1cnc2ccc(-c3c[nH]c4ncc(NC(=O)c5cccc(C#N)c5)cc34)cc21 [P-235, N-[3-(3-tert-butylbenzimidazol-5-yl)-1H-pyrrolo[2,3-b]pyridin-5-yl]-3-cyano-benzamide] |
| 0.0001 to 1 | COc1cc(-c2cnc3[nH]cc(-c4ccc5ncn(C6CCCN(C)C6)c5c4)c3n2)ccn1 (stereo not drawn) [P-271, 2-(2-methoxy-4-pyridyl)-7-[3-(1-methyl-3-piperidyl)benzimidazol-5-yl]-5H-pyrrolo[2,3-b]pyrazine] |
| 0.0001 to 1 | COc1cc(-c2cnc3[nH]cc(-c4ccc5ncn([C@@H]6CCCNC6)c5c4)c3n2)ccn1 [P-254, 2-(2-methoxy-4-pyridyl)-7-[3-[(3R)-3-piperidyl]benzimidazol-5-yl]-5H-pyrrolo[2,3-b]pyrazine] |
| 0.0001 to 1 | CC(C)(C)n1cnc2ccc(-c3c[nH]c4ncc(-c5cnc(N6CCOCC6)nc5)cc34)cc21 [P-266, 4-[5-[3-(3-tert-butylbenzimidazol-5-yl)-1H-pyrrolo[2,3-b]pyridin-5-yl]pyrimidin-2-yl]morpholine] |
| 0.0001 to 1 | N#Cc1cccc(-c2cnc3[nH]cc(-c4ccc5ncn(-c6ccc(F)c(Cl)c6)c5c4)c3c2)c1 [P-210, 3-[3-[3-(3-chloro-4-fluoro-phenyl)benzimidazol-5-yl]-1H-pyrrolo[2,3-b]pyridin-5-yl]benzonitrile] |
| 0.0001 to 1 | C#Cc1cnc2[nH]cc(-c3ccc4ncn(C5CCCNC5)c4c3)c2n1 (stereo not drawn) [P-270, 2-ethynyl-7-[3-(3-piperidyl)benzimidazol-5-yl]-5H-pyrrolo[2,3-b]pyrazine] |
| 0.0001 to 1 | CC(C)(C)n1cnc2ccc(-c3c[nH]c4ncc(-c5cccc(N6CCCS6(=O)=O)c5)nc34)cc21 [P-231, 2-[3-[7-(3-tert-butylbenzimidazol-5-yl)-5H-pyrrolo[2,3-b]pyrazin-2-yl]phenyl]-1,2-thiazolidine 1,1-dioxide] |
| 0.0001 to 1 | CC(C)(C)n1cnc2ccc(-c3c[nH]c4ncc(-c5ccc(F)c(C#N)c5)nc34)cc21 [P-230, 5-[7-(3-tert-butylbenzimidazol-5-yl)-5H-pyrrolo[2,3-b]pyrazin-2-yl]-2-fluoro-benzonitrile] |
| 0.0001 to 1 | CN(c1cccc(-c2cnc3[nH]cc(-c4ccc5ncn(C)c5c4)c3n2)c1)S(C)(=O)=O [P-150, N-methyl-N-[3-[7-(3-methylbenzimidazol-5-yl)-5H-pyrrolo[2,3-b]pyrazin-2-yl]phenyl]methanesulfonamide] |
| 0.0001 to 1 | COc1cc(-c2cnc3[nH]cc(-c4ccc5ncn(C6CCCN(C(C)=O)C6)c5c4)c3n2)ccn1 (stereo not drawn) [P-260, 1-[3-[6-[2-(2-methoxy-4-pyridyl)-5H-pyrrolo[2,3-b]pyrazin-7-yl]benzimidazol-1-yl]-1-piperidyl]ethanone] |
| 0.0001 to 1 | c1cc(-c2cnc3[nH]cc(-c4ccc5ncn(C6CCCNC6)c5c4)c3c2)cc(N2CCOCC2)n1 (stereo not drawn) [P-223, 4-[4-[3-[3-(3-piperidyl)benzimidazol-5-yl]-1H-pyrrolo[2,3-b]pyridin-5-yl]-2-pyridyl]morpholine] |
| 0.0001 to 1 | COc1ncc(-c2cnc3[nH]cc(-c4ccc5ncn(C(C)(C)C)c5c4)c3n2)cn1 [P-263, 7-(3-tert-butylbenzimidazol-5-yl)-2-(2-methoxypyrimidin-5-yl)-5H-pyrrolo[2,3-b]pyrazine] |
| 0.0001 to 1 | COc1ncc(-c2cnc3[nH]cc(-c4ccc5ncn(C6CCCNC6)c5c4)c3n2)cn1 (stereo not drawn) [P-264, 2-(2-methoxypyrimidin-5-yl)-7-[3-(3-piperidyl)benzimidazol-5-yl]-5H-pyrrolo[2,3-b]pyrazine] |
| 0.0001 to 1 | COc1cc(C(=O)Nc2cnc3[nH]cc(-c4ccc5ncn(C6CCCNC6)c5c4)c3c2)ccn1 (stereo not drawn) [P-247, 2-methoxy-N-[3-[3-(3-piperidyl)benzimidazol-5-yl]-1H-pyrrolo[2,3-b]pyridin-5-yl]pyridine-4-carboxamide] |
| 0.0001 to 1 | COc1cnc2[nH]cc(-c3cnc4ncn(Cc5cc(C)on5)c4c3)c2c1 [P-144, 3-[[6-(5-methoxy-1H-pyrrolo[2,3-b]pyridin-3-yl)imidazo[4,5-b]pyridin-1-yl]methyl]-5-methyl-isoxazole] |
| 0.0001 to 1 | CC(C)(C)n1cnc2ccc(-c3c[nH]c4ncc(-c5cnn(C(F)F)c5)nc34)cc21 [P-255, 7-(3-tert-butylbenzimidazol-5-yl)-2-[1-(difluoromethyl)pyrazol-4-yl]-5H-pyrrolo[2,3-b]pyrazine] |
| 0.0001 to 1 | O=S(=O)(c1cccc(-c2cnc3[nH]cc(-c4ccc5ncn(C6CCCNC6)c5c4)c3c2)c1)N1CCCC1 (stereo not drawn) [P-222, 1-(3-piperidyl)-6-[5-(3-pyrrolidin-1-ylsulfonylphenyl)-1H-pyrrolo[2,3-b]pyridin-3-yl]benzimidazole] |
| 0.0001 to 1 | FC(F)(F)Oc1cccc(C#Cc2cnc3[nH]cc(-c4ccc5ncn(C6CCCNC6)c5c4)c3n2)c1 (stereo not drawn) [P-246, 7-[3-(3-piperidyl)benzimidazol-5-yl]-2-[2-[3-(trifluoromethoxy)phenyl]ethynyl]-5H-pyrrolo[2,3-b]pyrazine] |
| 0.0001 to 1 | O=S1(=O)CCCCN1c1cccc(-c2cnc3[nH]cc(-c4ccc5ncn(C6CCCNC6)c5c4)c3n2)c1 (stereo not drawn) [P-253, 2-[3-[7-[3-(3-piperidyl)benzimidazol-5-yl]-5H-pyrrolo[2,3-b]pyrazin-2-yl]phenyl]thiazinane 1,1-dioxide] |
| 0.0001 to 1 | CC(C)(C)n1cnc2ccc(-c3c[nH]c4ncc(-c5ccnc(N6CCOCC6)c5)nc34)cc21 [P-228, 4-[4-[7-(3-tert-butylbenzimidazol-5-yl)-5H-pyrrolo[2,3-b]pyrazin-2-yl]-2-pyridyl]morpholine] |
| 0.0001 to 1 | N#Cc1cccc(C#Cc2cnc3[nH]cc(-c4ccc5ncn(C6CCCNC6)c5c4)c3c2)c1 (stereo not drawn) [P-243, 3-[2-[3-[3-(3-piperidyl)benzimidazol-5-yl]-1H-pyrrolo[2,3-b]pyridin-5-yl]ethynyl]benzonitrile] |
| 0.0001 to 1 | FC(F)n1cc(-c2cnc3[nH]cc(-c4ccc5ncn(C6CCCNC6)c5c4)c3n2)cn1 (stereo not drawn) [P-257, 2-[1-(difluoromethyl)pyrazol-4-yl]-7-[3-(3-piperidyl)benzimidazol-5-yl]-5H-pyrrolo[2,3-b]pyrazine] |
